Publication PMC6222545, “Evaluating Marine Cyanobacteria as a Source for CNS Receptor Ligands” (Molecules : A Journal of Synthetic Chemistry and Natural …, 2018)

Key:
σ2R = biological target: T1, σ2R (Rattus norvegicus, UniProt Q5U3Y7); experiment: PDSP radioligand competitive binding, σ2R
T1 sequence (Q5U3Y7 1-176): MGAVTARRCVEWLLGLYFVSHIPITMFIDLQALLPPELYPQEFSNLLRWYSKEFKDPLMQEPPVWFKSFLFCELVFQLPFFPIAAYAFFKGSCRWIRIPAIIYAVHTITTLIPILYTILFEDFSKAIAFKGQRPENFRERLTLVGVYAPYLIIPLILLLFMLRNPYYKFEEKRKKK
Description: (§1) Prior to screening, cyanobacterial samples are extracted exhaustively in a solution of dichloromethane and methanol, then the extract is subjected to column chromatography using the solvent step gradient illustrated in Figure 1 to create nine fractions. The polarities of the solvents in this step gradient increase linearly with each fraction. A sample of each fraction and the crude is prepared and sent to the NIMH Psychoactive Drug Screening Program (PDSP) for screening against a panel of ~50 receptor including 5-HTRs, DARs, MATs, σRs, and other CNS receptors.
(§2) From the extracts of 37 cyanobacterial field collections from Panama and Curacao, 19 crude extracts and 301 fractions were sent to PDSP for CNS screening. Due to sample size requirements not all fractions created are sent for screening, resulting in a lower number of total fractions screened compared to the theoretical amount of 370 fractions and crudes. […] Data analysis of results from these screens is presented herein.
(§3) A cyanobacterial biomass collected at Isla Mina, Panama was extracted exhaustively with CH2Cl2-MeOH (2:1) to afford 3.3 g of crude extract given the identification code DUQ0008. This extract was fractionated to yield nine fractions (A–I). The crude extract, along with the nine fractions were submitted to PDSP for screening. […]

5-HT2C = biological target: T2, 5-HT2C (Homo sapiens, UniProt P28335); experiment: PDSP radioligand competitive binding, 5-HT2C
T2 sequence (P28335 33-458): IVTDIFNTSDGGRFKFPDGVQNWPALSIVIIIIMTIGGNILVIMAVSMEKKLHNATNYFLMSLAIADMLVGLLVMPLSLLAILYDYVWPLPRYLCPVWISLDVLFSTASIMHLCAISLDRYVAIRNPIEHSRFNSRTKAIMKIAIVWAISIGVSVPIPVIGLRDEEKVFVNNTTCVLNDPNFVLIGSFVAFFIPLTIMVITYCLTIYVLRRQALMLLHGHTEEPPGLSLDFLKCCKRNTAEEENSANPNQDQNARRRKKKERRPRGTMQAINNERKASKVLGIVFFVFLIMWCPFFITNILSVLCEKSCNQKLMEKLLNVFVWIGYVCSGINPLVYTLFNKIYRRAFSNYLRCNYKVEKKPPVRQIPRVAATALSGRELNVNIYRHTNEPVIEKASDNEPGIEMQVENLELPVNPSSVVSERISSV
Description: as §1, §2, §3

[1] = test system: 5-HTRs or any other receptor; experiment: PDSP primary radioligand binding screen, CNS receptor panel; parameters: dose or concentration left out as unconfirmed; settings: data not shown
Description: as §1, §2
IC50 determinations/receptor binding profiles were generously provided by the National Institute of Mental Health’s Psychoactive Drug Screening Program, Contract # HHSN-271-2018-00023-C (NIMH PDSP). The NIMH PDSP is Directed by Bryan L. Roth MD, PhD at the University of North Carolina at Chapel Hill and Project Officer Jamie Driscoll at NIMH, Bethesda MD, USA. Detailed information regarding the assay protocol can be found at http://pdspdb.unc.edu/pdspWeb/.

[2] = pure compound resubmitted to PDSP

| inhibition of radioligand binding at 5-HTRs or any other receptor [1] [%] | Compound | affinity for the σ2R (σ2R; in words) | Ki (σ2R; [2]) [nM] | inhibition of binding at 5-HT2C (5-HT2C; primary binding, pure compound) | Ki (5-HT2C; [2]) [µM] |
| --- | --- | --- | --- | --- | --- |
| – | C#CCCC[C@H]1OC(=O)[C@H](C(C)C)N(C)C(=O)[C@@H]2CCCN2C(=O)[C@H]([C@@H](C)CC)OC(=O)[C@H](C(C)C)N(C)C(=O)[C@H](C(C)C)NC(=O)[C@H]1C [compound 1, veraguamide C] | moderate and selective affinity | 316 | greater than 50% | > 10 |
| < 50 | CCCCCCCCC/C(C)=C/C(C/C=C/CCC(=O)OCC)OC (stereo not shown) [compound 2] | – | – | – | – |
| < 50 | CCCCCCC[C@H]1C[C@@H]1CCC(=O)OCC [compound 3] | – | – | – | – |
| < 50 | C=C(CCCCCCCCCCCCC)CCCC(=O)O/C=C/COC(C)=O [compound 4, propenediester] | – | – | – | – |
